Among the data in PubChem BioAssay (NCI) are GI50 and TGI values, retold here.

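Growth conditions: 96-well plates. Treatment: test compound, 48 hours, 5 concentrations. Analysis: linear interpolation between bracketing concentrations; unreached endpoints set to highest concentration. At the GI50, growth is halved. Definition used: TGI = concentration required for complete inhibition of growth.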

Common to all, as to test: NCI tumour cell line growth inhibition, 48 h
In assay [1] the test system is RXF 393 renal.
The test system of assay [2] is A498 renal.
In assay [3] the test system is NCI-H226 lung.
Assay [4] has as its system NCI-H460 lung.
Assay [5] deals with SF-268 CNS.
Assay [6] relates to OVCAR-4 ovarian.
Assay [7] deals with EKVX NSCLC.
For assay [8], the system named is ACHN renal.
The subject of assay [9] is KM12 colon.
Assay [10] relates to NCI-H522 lung.

Regarding `CC1(C)N=C(N)N=C(N)N1c1ccc(CCCCc2ccc(Cl)c(S(=O)(=O)F)c2)c(Cl)c1`, the GI50 in assay [1] is 5.93 µM; in assay [2] it was 5.56 µM; in assay [3], 4.18 µM; in [4], 0.315 µM; in assay [5] it was 0.509 µM; in assay [6], 4.51 µM. Also, the GI50 was 2.81 µM in assay [7], 6.56 µM in [8], 1.36 µM in assay [9] and 0.71 µM in [10]. Moreover, the TGI in [1] is 27.8 µM; in [2], 25.7 µM; in assay [3], 37.6 µM; in assay [4] it was 16.5 µM; in assay [5], 15.9 µM; in assay [6], 49.7 µM. Besides, the TGI in assay [7] is 37.7 µM; in assay [8], 21.1 µM; in assay [9], 7.81 µM; in [10] it was 13.3 µM.

Consider `COc1ccc(-c2cc(/C=C/C(=O)c3ccc(OC)c(OC)c3)[nH]n2)cc1`, for which the GI50 in assay [1] is 1.39 µM; in assay [2], 1.42 µM; in assay [4], 1.64 µM; in assay [5] it was 1.94 µM; in assay [6] it was 0.509 µM; in assay [8], 1.68 µM. Besides, the GI50 in assay [9] is 1.38 µM; in [10] it was 0.41 µM. Also, the TGI was 2.94 µM in assay [1]; 3.55 µM in assay [2]; 4.34 µM in assay [4]; 4.83 µM in assay [5]; 3.87 µM in assay [6]; 3.83 µM in assay [8]. Also, the TGI in [9] came to 3.11 µM; in [10], 1.39 µM.

Turning to `Nc1c(C(=O)c2ccccc2)cnn1-c1ccc(F)cc1`, the GI50 in assay [1], in [2], in assay [3], in assay [4], in assay [5] and in [6] was > 25 µM throughout. Besides, the GI50 in [8], in assay [9] and in [10] was > 25 µM throughout. The TGI in [1], in [2], in [3], in assay [4], in [5] and in [6] was > 25 µM each time. Further, the TGI in assay [8], in assay [9] and in assay [10] was > 25 µM in each case.

On to `CN(C)c1ncnc2c1ncn2CCn1cnc2c(N(C)C)ncnc21`, for which the TGI in assay [1], in assay [2], in assay [4], in assay [5], in [6] and in assay [7] was > 100 µM in each case. Moreover, the TGI in assay [8], in [9] and in [10] was > 100 µM throughout.

In the case of `Cn1cc(-c2csc(-c3c[nH]c4ccc(Br)cc34)n2)c2cnccc21`, the GI50 in assay [1] is 1.47 µM; in assay [2], 12.6 µM; in assay [3] it was 2.34 µM; in [4], 1.92 µM; in [5], 2.83 µM; in [6], 2.35 µM. Also, the GI50 was 2.5 µM in [7] and 2.33 µM in assay [9]. For the same compound, the TGI is 2.96 µM in [1]; > 100 µM in assay [2]; 6 µM in assay [3]; 3.74 µM in assay [4]; 7.96 µM in [5]; 5.71 µM in assay [6]. In addition, the TGI in assay [7] was determined as 6.37 µM; in assay [9], 5.48 µM.

With `C#Cc1nc(Nc2cc(C)[nH]n2)c2ccccc2n1`, the GI50 in [1] is 0.136 µM; in [2] it was 0.139 µM; in [4], 0.346 µM; in assay [5] it was 0.313 µM; in assay [6] it was 0.347 µM; in [8], 0.257 µM. Besides, the figures for the GI50 in assay [9] and in assay [10] were 0.232 µM and 0.476 µM, respectively. Moreover, the TGI in [1] worked out at 0.301 µM; in [2], 0.3 µM; in assay [4] it was 1.43 µM; in assay [5], 1.11 µM; in assay [8], 1.71 µM; in [9] it was 0.503 µM. Also, the TGI in assay [10] stood at 1.99 µM.

In the case of `C[Si](C)(C)/C(Br)=C\CCN1C(=O)CCC1=O`, the TGI in [1], in assay [2], in [3], in assay [4], in assay [5] and in assay [6] was > 100 µM each time. For the same compound, the TGI in assay [7], in assay [8] and in assay [9] was > 100 µM in each case.

As to `CC(C)(C)[Si](C)(C)OC1C(=O)C[C@H]2CCCC[C@@H]12` (stereo partly specified), the TGI in assay [1], in [2], in assay [4], in assay [5], in [6] and in [7] was > 100 µM each time. Besides, the TGI in assay [8] and in [9] was > 100 µM each time.

Take `CN(C)CCSc1cc(-c2ccccc2)c2ccccc2n1`: the TGI in assay [1] worked out at 15.8 µM; in assay [2] it was 33 µM; in [3], 33.4 µM; in [5] it was 27.1 µM; in assay [7] it was 30.3 µM; in assay [8], 26.7 µM. The TGI in assay [9] was 29 µM; in assay [10], 24.1 µM.

`COc1ccc(-c2nsc3c2NC(=O)CC3c2cccc(OC)c2)cc1` (stereo unspecified): the GI50 in assay [1] is 2.29 µM; in [2] it was 0.408 µM; in assay [3], 17.5 µM; in assay [4], 0.534 µM; in assay [5], 4.53 µM; in assay [6] it was 7.4 µM. Besides, the GI50 in assay [8] is 4.87 µM; in assay [9] it was 0.505 µM; in [10] it was 0.702 µM. For the same compound, the TGI in assay [1] was 8.95 µM; in assay [2], 5.02 µM; in assay [3], > 100 µM; in assay [4] it was 71.8 µM; in assay [5] it was > 100 µM; in assay [6], > 100 µM. Moreover, the TGI was > 100 µM in assay [8], > 100 µM in assay [9] and 5.28 µM in [10].

In the case of `O=C(/C=C/C=C/c1ccccc1)c1ccccc1`, the TGI in assay [1] turned out to be 37.3 µM; in assay [2] it was 31.5 µM; in assay [3] it was 34.3 µM; in assay [4] it was 49.5 µM; in [5], 38.2 µM; in assay [6], 39.7 µM. Moreover, the TGI was determined as 28.6 µM in assay [7], 27.3 µM in assay [9] and 20.2 µM in assay [10].

For the compound `O=C1c2cc3c(cc2-c2c1c1cc(Cl)c(Cl)cc1c(=O)n2C[C@H](O)CO)OCO3`, the GI50 was < 0.01 µM in assay [1]; < 0.01 µM in assay [2]; < 0.01 µM in assay [3]; < 0.01 µM in assay [4]; < 0.01 µM in [5]; 0.0243 µM in [7]. Moreover, the GI50 in [8] and in assay [10] was < 0.01 µM each time. Further, the TGI in assay [1] is 0.0378 µM; in assay [2], 0.032 µM; in [3] it was 0.0248 µM; in assay [4], 0.0268 µM; in [5], 2.7 µM; in assay [7], 19 µM. In addition, the TGI amounted to 0.0128 µM in [8] and 0.122 µM in assay [10].

With `Cc1ccc(Nc2oc(-c3ccccc3)nc2[P+](c2ccccc2)(c2ccccc2)c2ccccc2)cc1`, the GI50 in assay [1] is 0.864 µM; in assay [2] it was 0.697 µM; in assay [4] it was 0.804 µM; in assay [5] it was 1.56 µM; in assay [6], 0.357 µM; in assay [7], 0.616 µM. Also, the GI50 in [8] is 0.988 µM; in assay [9], 0.861 µM; in [10] it was 0.45 µM. Further, the TGI in [1] was determined as 2.34 µM; in assay [2], 2.36 µM; in [4], 2.2 µM; in assay [5] it was 4.9 µM; in [6], 2.07 µM; in [7], 2.38 µM. Moreover, the TGI is 2.76 µM in assay [8], 2.46 µM in assay [9] and 1.79 µM in assay [10].

`O=[N+]([O-])c1ccc(CI)cc1`: the GI50 in [1] was 2.44 µM; in [2] it was 2.29 µM; in assay [3], 5.66 µM; in [4], 3.2 µM; in assay [5], 4.02 µM; in assay [6] it was 3.6 µM. For the same compound, the GI50 in [8] is 1.96 µM; in [9], 3.52 µM; in [10] it was 1.41 µM. Further, the TGI in [1] turned out to be 8.74 µM; in assay [2], 9.56 µM; in assay [3], 23.5 µM; in assay [4] it was 10.5 µM; in assay [5], 15.2 µM; in [6], 18.6 µM. Further, the TGI came out at 4.12 µM in assay [8], 12 µM in [9] and 3.02 µM in assay [10].

`COc1ccc(/C(=C\C=C(C#N)C#N)Sc2nc3ccccc3s2)cc1`: the GI50 is 1.47 µM in assay [1]; 16.4 µM in assay [2]; 11.2 µM in assay [3]; 11.7 µM in [4]; 8.53 µM in [5]; 10.5 µM in [7]. Moreover, the GI50 in assay [9] was 10.6 µM; in [10] it was 14.6 µM. The TGI in [1] was 2.97 µM; in assay [2] it was 28.5 µM; in assay [3] it was 40.9 µM; in assay [4] it was > 50 µM; in assay [5] it was 25.2 µM; in [7] it was 22 µM. Moreover, the TGI was 31.3 µM in [9] and > 50 µM in assay [10].

With `C[C@]12CCC(=O)C=C1CC[C@@H]1C2CC[C@]2(C)Nc3[nH]ncc3CC12` (stereo partly specified), the TGI in assay [1], in [2], in [3], in assay [4], in assay [6] and in assay [7] was > 100 µM each time. Further, the TGI in [8] and in assay [9] was > 100 µM throughout.

In the case of `CCN(Cc1ccc(F)cc1)c1ccc(CO)c(Br)c1`, the GI50 was 1.4 µM in [1]; 0.0272 µM in assay [2]; 0.0987 µM in [3]; 0.144 µM in assay [4]; 22.6 µM in assay [5]; 0.152 µM in [6]. The GI50 in [8] was 10.2 µM; in [9], 23.4 µM; in assay [10], 13.8 µM. The TGI is 16.1 µM in assay [1]; 0.136 µM in [2]; 0.231 µM in assay [3]; 12.1 µM in [4]; > 56.3 µM in [5]; 2.68 µM in assay [6]. The TGI in [8] was determined as 42 µM; in assay [9] it was 63.1 µM; in assay [10], 30.2 µM.

With `CC(C(=O)O)c1cccc(Oc2ccccc2)c1` (stereo unspecified), the GI50 in assay [1], in assay [2], in [3], in [4], in assay [5] and in assay [7] was > 100 µM throughout. Further, the GI50 in assay [8], in assay [9] and in [10] was > 100 µM in each case. Moreover, the TGI in [1], in assay [2], in [3], in [4], in assay [5] and in assay [7] was > 100 µM throughout. For the same compound, the TGI in [8], in [9] and in assay [10] was > 100 µM throughout.

For the compound `O=C(Nc1cc(C(F)(F)F)ccc1Cl)c1cccc(NC2=C(Cl)C(=O)N(Cc3ccccc3)C2=O)c1`, the GI50 was 28.5 µM in [2]; 17.6 µM in assay [3]; 38.2 µM in [4]; 29.2 µM in assay [5]; > 100 µM in assay [6]; 53 µM in assay [7]. For the same compound, the GI50 was 99.9 µM in assay [8], 52.9 µM in [9] and 6.8 µM in assay [10]. Further, the TGI in [2] was 92.9 µM; in assay [3], > 100 µM; in [4], > 100 µM; in [5], > 100 µM; in assay [6], > 100 µM; in assay [7] it was > 100 µM. In addition, the TGI was > 100 µM in assay [8], > 100 µM in assay [9] and 45.3 µM in assay [10].
